Data on 31 compounds can be found in PubChem BioAssay (NCI).

Each structure is given as a SMILES string.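 Where inhibition never reached the appropriate level, the endpoint shown equals the highest concentration tested. Otherwise, values were interpolated linearly from a five-concentration, 48-hour dose response in 96-well plates. GI50 is the concentration that inhibits growth by half. TGI denotes the concentration required for complete inhibition of growth.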

What all share (experiment): NCI-60 cell line screen, 48 h
Test [1] concerns SK-OV-3 ovarian.
The subject of test [2] is MDA-N.
Test [3] has as its system HCT-15 colon.
Test [4] concerns SW-620 colon.
In test [5] the test system is COLO 205 colon.
Test [6] concerns A549 NSCLC.
Test [7] relates to T-47D breast.
For test [8], the system named is SNB-75 CNS.
Test [9] relates to RXF 393 renal.
Test [10] concerns MOLT-4 leukemia.

Turning to `O=C(Cn1c2c(c3ccccc31)CCCC2)NC1CCCCC1`, the TGI in [1], in [2], in test [3], in [4], in test [5] and in test [6] was above 100 µM in each case.

Turning to `N#Cc1c(N)oc(-c2cccc([N+](=O)[O-])c2)c1C#N`, the TGI was above 100 µM in test [1]; above 100 µM in test [7]; 98.2 µM in test [8]; 57.3 µM in test [9]; 30.7 µM in test [3]; 62 µM in [4]. The TGI in test [5] was 44.7 µM; in test [6], above 100 µM.

On to `COc1cc2cc(C(=O)N3CC(CCl)c4ccc(O)cc43)[nH]c2c(OC)c1OC` (configuration not stated), for which the TGI in test [7] came to 0.547 µM; in test [8], 0.0652 µM; in [9], 0.000301 µM; in test [3], 0.0412 µM; in [4], 0.137 µM; in [5], 0.0451 µM. In [6], this compound returned a TGI of 1.25 µM.

Regarding `CC1(C)CC(=O)c2c(nc3ccc4ccccc4c3c2-c2ccc(NC(=O)CCCC(=O)Nc3ccc(-c4c5c(nc6ccc7ccccc7c46)CC(C)(C)CC5=O)cc3)cc2)C1`, the TGI in test [1], in [7], in test [10], in test [8], in [2] and in test [3] was above 100 µM in each case. For the same compound, the TGI in test [4], in test [5] and in test [6] was above 100 µM throughout.

For `O=c1cc(-c2ccccc2)[nH]c2cc(O)ccc12`, the TGI in test [1] worked out at 90.7 µM; in [10], 54.7 µM; in test [8], 72.5 µM; in test [9], 37.5 µM; in test [3], 30.6 µM; in test [4], 31.3 µM. Further, the TGI in test [5] worked out at 32.3 µM; in test [6], 81.8 µM.

`CN(CCO)c1nc2c(c(=O)[nH]1)CCC2`: the TGI in test [1], in [10], in test [8], in test [9], in test [3] and in [4] was above 100 µM in each case. Besides, the TGI in [5] and in [6] was above 100 µM throughout.

For `COc1ccc2[nH]c3c(c2c1)CCn1c-3nc2ccccc2c1=O`, the TGI in test [1], in test [7], in test [10], in test [8], in test [2] and in test [3] was above 25 µM in each case. The TGI in test [4], in [5] and in [6] was above 25 µM each time.

`COc1cc2c(c(OC)c1OC)C(=O)[C@H](O)[C@H]2NC(N)=O`: the TGI in test [10], in test [8], in test [2], in test [9], in [3] and in [4] was above 100 µM in each case. In addition, the TGI in test [5] and in test [6] was above 100 µM throughout.

Turning to `CNC(=O)N1CN(c2ccccc2)C2(CCN(CCCC(=O)c3ccc(F)cc3)CC2)C1=O`, the TGI was 79.9 µM in test [1]; 33.8 µM in [7]; 33.6 µM in test [10]; above 100 µM in test [8]; 54.6 µM in test [9]; 33.6 µM in test [3]. For the same compound, the figures for the TGI in [4], in [5] and in test [6] were above 100 µM, 22.3 µM and above 100 µM, respectively.

For `COc1ccc(NC(=O)/C(=N\NC(=O)C[n+]2ccccc2)c2c(O)c3ccc(O)cc3oc2=O)c([N+](=O)[O-])c1`, the TGI in [1], in test [7], in [10], in [8], in [2] and in [3] was above 100 µM throughout. Further, the TGI in test [4], in test [5] and in test [6] was above 100 µM each time.

As to `O=C(CN1CCNCCN(CC(=O)N2CCCCC2)CCNCC1)N1CCCCC1`, the TGI in test [1], in [7], in test [10], in [8], in [2] and in [3] was above 100 µM throughout. The TGI in [4], in test [5] and in test [6] was above 100 µM each time.

For `C[C@@H]1CC[C@H]2C(COCCOCC3=C(C(F)(F)F)O[C@@H]4O[C@@]5(C)CC[C@H]6[C@H](C)CC[C@@H]3[C@@]46OO5)=C(C(F)(F)F)O[C@@H]3O[C@@]4(C)CC[C@@H]1[C@]32OO4`, the GI50 in test [1] was above 31.5 µM; in test [7] it was below 0.014 µM; in [10] it was below 0.0349 µM; in [8], above 4.64 µM; in test [9], above 100 µM; in test [3], 0.0264 µM. Besides, the results for the GI50 in [4], in test [5] and in [6] were 0.0293 µM, 0.0188 µM and below 0.0332 µM, respectively. For the same compound, the TGI in [1] was above 100 µM; in [7] it was above 94.6 µM; in [10] it was above 100 µM; in test [8], above 100 µM; in test [9], above 100 µM; in test [3] it was above 13.8 µM. Further, the values for the TGI in [4], in [5] and in test [6] were above 100 µM, 1.64 µM and above 100 µM, respectively.

For `CCOC1(COP(=O)(OCc2ccccc2)OCc2ccccc2)COC(COP(=O)(OCc2ccccc2)OCc2ccccc2)(OCC)CO1` (configuration not stated), the TGI in [1], in [10], in test [9], in [3], in [4] and in test [5] was above 100 µM each time. Moreover, the TGI in test [6] was above 100 µM.

`COc1ccc(N2C(=O)C3c4[nH]c5ccc(C)cc5c4C4CCC(C)CC4C3C2=O)cc1` (configuration not stated): the TGI in [1] was above 100 µM; in [10], above 100 µM; in test [2], above 100 µM; in test [9], 58.6 µM; in [3] it was above 100 µM; in test [4], above 100 µM. The TGI in test [5] and in test [6] was above 100 µM in each case.

`CC(=O)C1=CSC2[C@H](NC(=O)Cc3ccccc3)C(=O)N2C1C(=O)OC(c1ccccc1)c1ccccc1` (some centres not stated): the TGI in test [1], in test [10], in [8], in test [4], in test [5] and in test [6] was above 100 µM in each case.

For the compound `C/C(=N\Nc1nc2ccccc2s1)c1ncccn1`, the TGI in test [7] was above 100 µM; in test [10] it was above 53.9 µM; in test [8] it was 5.58 µM; in [9] it was 4.68 µM; in [3], 2.45 µM; in [4], above 69.2 µM. The TGI in test [5] is 1.19 µM; in test [6] it was above 20 µM.

As for `Cc1ccccc1N=Nc1ccc(N=Nc2c(O)ccc3ccccc23)c(C)c1`, the TGI in [1], in test [7], in test [10], in [8], in test [9] and in [3] was above 100 µM each time. Besides, the TGI in [4], in test [5] and in test [6] was above 100 µM throughout.

Turning to `CCCCCCNC(=O)c1cnc(Cl)cn1`, the TGI in test [1] was 66 µM; in test [7] it was above 100 µM; in test [10], 23.2 µM; in [8], 49.1 µM; in test [3], 7.25 µM; in test [4] it was 28.4 µM. Moreover, the TGI in [5] came to 40 µM; in test [6], 42.3 µM.

As for `CCO[C@]12C[C@H](OC)[C@@]3(O)CC(C1[C@H]3OCc1ccccc1)C13C4C2[C@H](OC)C1[C@](COC)(CN4CC)[C@H](O)C[C@@H]3OC` (some centres not stated), the TGI in test [1], in [10], in test [8], in [9], in test [3] and in [4] was above 100 µM throughout. In addition, the TGI in [5] and in test [6] was above 100 µM in each case.

Regarding `COC(=O)c1c2n(c3ccccc13)C[C@H]1OC(C)(C)O[C@@H]21`, the TGI in [1], in [7], in test [10], in [8], in [9] and in [3] was above 100 µM in each case. The TGI in test [4], in test [5] and in [6] was above 100 µM throughout.

With `CN(C)c1ccc(C=C2C(=O)OC(C)(C)OC2=O)cc1Br`, the TGI in test [1], in test [10], in test [8], in test [9], in [4] and in test [5] was above 100 µM in each case. In [6], this compound showed a TGI above 100 µM.

As for `CN(C)CCNC(=O)c1cccc2c(NCC(=O)O)c3ccccc3nc12`, the TGI is above 100 µM in test [1]; above 100 µM in test [10]; 64 µM in [8]; above 100 µM in [2]; above 100 µM in test [3]; above 100 µM in [4]. In addition, the TGI in test [5] is above 100 µM; in test [6] it was 53.5 µM.

As to `CC12NN=NC1C(=O)NC2=O` (configuration not stated), the TGI in [1], in [10], in test [8], in test [3], in [4] and in [5] was above 100 µM in each case. Moreover, the TGI in [6] was above 100 µM.

As to `COc1ccccc1NC(=O)/C(Cc1nc2ccc([N+](=O)[O-])cc2[nH]c1=O)=N\NC(=O)C[N+](C)(C)C`, the TGI was above 100 µM in test [1]; above 100 µM in test [10]; above 100 µM in test [8]; 36 µM in test [2]; above 100 µM in [9]; above 100 µM in test [3]. The TGI in test [4], in test [5] and in test [6] was above 100 µM in each case.

`O=c1cc(-c2cccc(Cl)c2)[nH]c2ncccc12`: the TGI in test [1] was above 100 µM; in [10] it was above 24.8 µM; in test [8], above 56.1 µM; in test [2], 0.0374 µM; in [9], 40.1 µM; in test [3], above 100 µM. In addition, the TGI in test [4] and in test [6] was above 100 µM in each case.

Take `COC(=O)C1C(OC(=O)c2ccccc2)CC2CCC1N2C(N)=O` (configuration not stated): the TGI in [1], in [7], in test [10], in [8], in [2] and in test [3] was above 100 µM throughout. The TGI in [4], in test [5] and in test [6] was above 100 µM each time.

For `CN(C)CCCNC(=O)N/N=C/c1cccc([N+](=O)[O-])c1`, the TGI in test [1], in test [10], in test [8], in [9], in test [3] and in [4] was above 100 µM each time. In addition, in test [6], the TGI is above 100 µM.

`Cn1c(/C=C(\O)c2ccc(Cl)cc2)nc2ccccc21`: the TGI in test [10], in test [8], in test [9], in test [3], in test [4] and in [5] was above 100 µM throughout. In addition, the TGI in [6] is 69.4 µM.

In the case of `COc1cc(OC)c(/C=C2\N=C(C)N(Nc3nnc(NN4C(=O)/C(=C/c5c(OC)cc(OC)cc5OC)N=C4C)c4ccccc34)C2=O)c(OC)c1`, the TGI in test [10], in test [8], in test [9], in test [3], in test [4] and in test [5] was above 100 µM throughout. Moreover, the TGI in test [6] is above 100 µM.

As for `NNC(=O)c1ccc(-n2nnc(C(=O)NN)c2C(=O)NN)cc1`, the TGI in test [10], in test [2], in [3], in test [5] and in [6] was above 100 µM in each case.

Take `CCOC(=O)/C(C(=S)Nc1ccccc1)=C(/N)N1CCCC1`: the TGI was above 100 µM in [10]; 84.9 µM in test [2]; above 100 µM in test [9]; above 100 µM in test [3]; above 100 µM in test [4]; above 100 µM in test [5]. The TGI in [6] was above 100 µM.
